Results: US12419879B2, “Combination therapy for the treatment of pancreatic cancer” (Genentech, Inc., priority 2016, dated 2025)

Experiments:
[1] = system: KP4 cells; assay: Small molecule inhibitor screen of KP4 cells in 2D monolayer and 3D spheroid cultures; format: cell-based, human; conditions: 2D monolayer vs 3D spheroid
Procedure: Cell viability assays were performed by treating cells with a dose titration (0.001 to 10 μM) or fixed dose (1 μM) of the various pharmacologic inhibitors for 72 hrs and measuring viability using CellTiter Glo (Promega). Bliss scores were calculated as described previously. (Borisy A A, Elliott P J, Hurst N W, Lee M S, Lehar J, Price E R, Systematic discovery of multicomponent therapeutics, Proceedings of the National Academy of Sciences of the United States of America, 2003; 100(13):7977-82, Epub 2003/06/12).
To compare how pancreatic cancer cells cultured in 2-dimensional (2D) and 3-dimensional (3D) cultures respond to various cancer therapeutic agents, we treated the KAS mutant PDAC cancer cell line KP4 with a panel of 203 small molecule inhibitors of cancer-relevant targets and known chemotherapeutics (Table 1).
For 3D cultures, described herein is a method to facilitate a relatively rapid “high-throughput” analysis. […] Their drug sensitivity pattern was also similar to previously described spheroids (FIGS. 28 & 29).

[2] = system: KP4 xenografts; format: in vivo
Procedure: (§1) All animal studies were carried out in compliance with National Institutes of Health Guide for the Care and Use of Laboratory Animals. […] Two xenograft models were used: the human PDAC-derived cell line KP4 and cells derived from tumors isolated from KPP GEMM mice. 5×10^6 cells were subcutaneously implanted into the right flanks of immune-deficient mice (Charles River Laboratories) without using any Matrigel. […] Tumor volumes were measured using Ultra-Cal IV calipers at the indicated intervals. To appropriately analyze the repeated measurement of tumor volumes from the same animals over time, a mixed modeling approach was used. (Jose Pinheiro D B, Saikat DebRoy, Deepayan Sarkar, R Core team. Linear and Nonlinear mixed effects models. Package ‘nlme’2008). This approach addresses both repeated measurements and modest dropouts due to any non-treatment-related deaths of animals before the study end. Cubic regression splines were used to fit a non-linear profile to time courses of log2 tumor volume at each dose level. These non-linear profiles were then related to the dose within the mixed model.
(§2) To determine the uncertainty intervals (UIs) for % TGI, the fitted curve and the fitted covariance matrix were used to generate a random sample as an approximation to the distribution of % TGI. […] The reported UIs were the values for which 95% of the time the recalculated values of % TGI would fall in this region given the fitted model. The 2.5 and 97.5 percentiles of the simulated distribution were used as the upper and lower UIs. Tumor growth inhibition >60% was considered meaningful. (Wong H, Choo E F, Alicke B, Ding X, La H, McNamara E, Antitumor activity of targeted and cytotoxic agents in murine subcutaneous tumor models correlates with clinical response, Clinical Cancer Research: an official journal of the American Association for Cancer Research, 2012; 18(14):3846-55. Epub 2012/06/01).
(§3) Plotting was performed and generated using R, version 2.8.1 (R Development Core Team 2008; R Foundation for Statistical Computing; Vienna, Austria) and Excel, version 12.0.1 (Microsoft Corporation). Data were analyzed using R, version 2.8.1, and the mixed models were fit within R using the nlme package, version 3.1-89 (41).

[3] = system: KPP xenografts; format: in vivo; conditions: cobimetinib 5 mg/kg and/or ponatinib 30 mg/kg, PO, QD; for Tumor volume (last day): in mm³ (unit assumed)
Procedure: as §1, §2, §3

[4] = system: serum growth factors and cytokines; assay: Luminex assay / ELISA of plasma samples of KP4 xenograft mice; format: in vivo
[5] = system: xenograft tumors; assay: Histopathology, IHC/IF staining and immunoblotting of grafted tumors; format: in vivo, mice
Procedure: Cells were seeded in 10 cm dishes and treated with 1 μM of small molecule inhibitors for 24 hrs. Cell lysates were prepared in RIPA lysis buffer (Thermo Scientific) containing a protease inhibitor cocktail (Thermo Scientific), SDS-PAGE was performed and proteins were transferred to nitrocellulose membranes. Immunoblotting was performed using standard methods. Protein bands were quantified using ImageJ software. Primary antibodies: p-Erk, p-STAT3, p-S6, total-S6, p-PDGFRα, p-PDGFRβ, p-RSK3, cleaved PARP, Bcl-xL, Mcl, survivin, Rab11, p-Akt, β-Actin, GAPDH (Cell Signaling), total-STAT3, total-PDGFRα (Santa Cruz Biotechnology), p-EphA7 (Gene Tex) and p-EphA2/3, EphA2/5 (MyBioscource). Immunohistochemistry and immunofluorescence were performed on 4 μm thick sections cut from formalin-fixed paraffin-embedded cell pellets, whole tissue sections, and TMA blocks (US Biomax, Inc.). Slides were deparaffinized and antigen unmasking was performed on PT Module (Thermo Scientific) with Target Retrieval Solution (Dako). […] Antibody binding was detected using Vecstatin ABC Elite horseradish peroxidase (Vector Laboratories) or PowerVision Poly-HRP (Leica Biosystems) and metal-enhanced 3, 3′-diaminobenzidine (Pierce) for IHC stainings and PowerVision Poly-HRP (Leica Biosystems) along with TSA kits (Life Technologies) for immunofluorescence staining. […]

[6] = system: PDGFRα, S6 and STAT3 activation; assay: Western blot of signaling proteins in PDAC cells (2D and 3D); format: cell-based, human; conditions: KP4 cells
Procedure: Cells were seeded in 10 cm dishes and treated with 1 μM of small molecule inhibitors for 24 hrs. Cell lysates were prepared in RIPA lysis buffer (Thermo Scientific) containing a protease inhibitor cocktail (Thermo Scientific), SDS-PAGE was performed and proteins were transferred to nitrocellulose membranes. Immunoblotting was performed using standard methods. Protein bands were quantified using ImageJ software. Primary antibodies: p-Erk, p-STAT3, p-S6, total-S6, p-PDGFRα, p-PDGFRβ, p-RSK3, cleaved PARP, Bcl-xL, Mcl, survivin, Rab11, p-Akt, β-Actin, GAPDH (Cell Signaling), total-STAT3, total-PDGFRα (Santa Cruz Biotechnology), p-EphA7 (Gene Tex) and p-EphA2/3, EphA2/5 (MyBioscource).

[7] = system: PDAC cell lines; assay: Cell viability assay (CellTiter Glo) with Bliss analysis in PDAC cell lines, 2D and 3D; format: cell-based, human
Procedure: Cell viability assays were performed by treating cells with a dose titration (0.001 to 10 μM) or fixed dose (1 μM) of the various pharmacologic inhibitors for 72 hrs and measuring viability using CellTiter Glo (Promega). Bliss scores were calculated as described previously.

[8] = system: IL-6 secretion; assay: IL-6 secretion in 2D culture supernatants of PDAC cell lines; format: cell-based, human; conditions: multiple PDAC cell lines, 24 hrs
[9] = cobimetinib 5 mg/kg and/or ponatinib 30 mg/kg, PO, QD

SMILES: CS(=O)(=O)N1CCN(Cc2cc3nc(-c4cccc5[nH]ncc45)nc(N4CCOCC4)c3s2)CC1 [GDC-0941]
- differential sensitivity of 3D versus 2D cultures [1]: more effective on 3D cultures than the 2D cultures

SMILES: O=C(c1ccc(F)c(F)c1Nc1ccc(I)cc1F)N1CC(O)([C@@H]2CCCCN2)C1 [Cobimetinib]
- effect on tumor growth (in words) [2]: ineffective as single agents
- % TGI (AUC vs. Vehicle) [2, 9]: 70%
- TTP 2X (Time to Tumor Progression, 2X original volume) [2, 9]: 13
- Tumor volume (last day) [2, 9]: 532 mm³
- % TGI (AUC vs. Vehicle) [3]: 31%
- TTP 2X (Time to Tumor Progression, 2X original volume) [3]: 6.5
- Tumor volume (last day) [3]: 917
- serum growth factor and cytokine levels [4]: Significantly elevated serum levels of PDGFα, PDGFβ, and increased levels of IL-6
- p-PDGFRα, p-STAT3 and pS6 in grafted tumors [5]: induction
- differential sensitivity of 3D versus 2D cultures [1]: more effective on 3D cultures than the 2D cultures
- activation of p-PDGFRα, p-STAT3 and p-S6 (western blot) [6]: increased level of activation
- effect on cell viability as single agents [7]: no effect on cell viability
- secretion of IL-6 [8]: increased secretion of the IL-6 ligand

SMILES: Cc1ccc(C(=O)Nc2ccc(CN3CCN(C)CC3)c(C(F)(F)F)c2)cc1C#Cc1cnc2cccnn12 [Ponatinib]
- effect on tumor growth (in words) [2]: ineffective as single agents
- TTP 2X (Time to Tumor Progression, 2X original volume) [2, 9]: 8.5
- Tumor volume (last day) [2, 9]: 408 mm³
- TTP 2X (Time to Tumor Progression, 2X original volume) [3]: 7
- Tumor volume (last day) [3]: 1045
- effect on cell viability as single agents [7]: no effect on cell viability

SMILES: Cc1c(CN2CCN(C(=O)[C@H](C)O)CC2)sc2c(N3CCOCC3)nc(-c3cnc(N)nc3)nc12 [GDC-0980]
- differential sensitivity of 3D versus 2D cultures [1]: more effective on 3D cultures than the 2D cultures

SMILES: Cn1cnc2c(F)c(Nc3ccc(Br)cc3Cl)c(C(=O)NOCCO)cc21 [AZD6244]
- differential sensitivity of 3D versus 2D cultures [1]: more effective on 3D cultures than the 2D cultures

SMILES: O=C(NOCCO)c1ccc2cncn2c1Nc1ccc(I)cc1F [GDC-0623]
- differential sensitivity of 3D versus 2D cultures [1]: more effective on 3D cultures than the 2D cultures

SMILES: O=C(NOC[C@H](O)CO)c1ccc(F)c(F)c1Nc1ccc(I)cc1F [PD901]
- differential sensitivity of 3D versus 2D cultures [1]: more effective on 3D cultures than the 2D cultures
